The results in this text go back to patent US8114886B2, “Pyridylmethylsulfone derivative” (Daiichi Sankyo Company, Limited, priority 2005, dated 2012).

For data set [1], the system named is β-amyloid protein (Aβ) secreted by E35 cells (H4 cells with APP751 gene). The experiment in a line: Screening system using E35 cells for inhibition of production/secretion of β-amyloid protein (sandwich ELISA of Aβ in culture medium). Type of data set: cell-based, human. Conditions: Homo sapiens, 24 hours with compound, Aβ in culture supernatant by ELISA, read-out: Inhibitory Activity for Production of A(EC50). The method, then: The activity of the compound inhibiting β-amyloid protein production was measured on E35 cells prepared by introducing APP751 gene, a gene of a human wild type β-amyloid protein precursor protein, to human glioma cells (H4 cells), by quantifying the amount of β-amyloid protein (Aβ) secreted to the culture medium by means of a sandwich type Enzyme-Linked Immunosorbent Assay (ELISA) method.
That is, E35 cells inoculated on a 96-well plate were cultured in an incubator at 37° C. which was maintained at equilibrium with 5% carbon dioxide, using Dulbecco's Modified Eagle's Medium containing inactivated 10% fetal bovine serum as the culture medium. After 24 hours from the inoculation, a test compound dissolved in a DMSO solution was added. The DMSO solution of the test compound was prepared at a concentration of 2000 times of the final concentration, such that the DMSO concentration in the culture medium would be 0.05%. After culturing for another 24 hours, the culture supernatant was recovered, and this was added to a 96-well plate for ELISA onto which a monoclonal antibody against Aβ, 25-1, was solid-phased. The plate was incubated at 4° C. for 16 to 20 hours. The plate was washed with phosphate buffer solution (pH 7.4), and then a biotinylated monoclonal antibody against Aβ, MA32-40, was added thereto. The plate was left to stand at 4° C. for 2 hours. The plate was washed again with phosphate buffer solution, and then alkaline phosphatase-conjugated streptavidin was added to conjugate streptavidin to biotin. Subsequently, the plate was washed with phosphate buffer solution. To this, Blue Phos (Kirkegaard & Perry Laboratories, Inc.) was added. After incubating the plate for an appropriate time, the reaction was terminated with an acid, and the absorbance for each well was measured. The amount of Aβ contained in the culture supernatant was determined from a calibration curve which was produced separately, and the amount was compared with that of control cells to which the compound was not added. Thus, the concentration at which 50% of the Aβ production is inhibited (EC50 value) was calculated. In addition, the 25-1 antibody and MA32-40 antibody used in ELISA were mouse monoclonal antibodies derived from the hybridoma cell clone lines, which were each produced and selected according to a standard method using Aβ25-35 and Aβ1-8 as antigens, respectively, and which specifically recognize their respective antigens. […]
The scores indicate ++++ for the case where EC50 was 5 nM or less; +++ for the case where EC50 was 5 to 50 nM; ++ for the case where EC50 was 50 to 500 nM; and + for the case where EC50 was 500 nM to 5 μM.

Each structure is given as a SMILES string. Bounds are passed on as bounds.

In the case of `COc1ccc(S(=O)(=O)C(c2cnc(C(=O)O)cc2C)c2cc(F)ccc2F)cc1F` (stereo not drawn) [Example 46, 5-[(2,5-Difluorophenyl)[(3-fluoro-4-methoxyphenyl)sulfonyl]methyl]-4-methylpyridine-2-carboxylic acid], the melting point (usually the temperature, or range, at which the solid turns liquid) lay in the range of 196 to 197 °C.
On to `Cc1cc(C(=O)NCO)ncc1C(c1c(F)ccc(F)c1F)S(=O)(=O)c1ccc(C(F)(F)F)cc1` (stereo not drawn) [Example 129, N-(hydroxymethyl)-4-methyl-5-[[[4-(trifluoromethyl)phenyl]sulfonyl](2,3,6-trifluorophenyl)methyl]pyridine-2-carboxamide], for which the melting point is 190 to 192 °C.
For the compound `Cc1cc(C(=O)NCOC(=O)CO)ncc1C(c1cc(F)ccc1F)S(=O)(=O)c1ccc(F)cc1` (stereo not drawn) [Example 109, [[[5-[(2,5-Difluorophenyl)[(4-fluorophenyl)sulfonyl]methyl]-4-methylpyridin-2-yl]carbonyl]amino]methyl hydroxyacetate], the melting point is 84 °C.
Regarding `Cc1cc(C(=O)N(C)C)ncc1C(c1c(F)ccc(F)c1F)[S+]([O-])c1ccc(F)cc1` (stereo not drawn) [Example 36B, 5-[[(4-fluorophenyl)sulfinyl](2,3,6-trifluorophenyl)methyl]-N,N,4-trimethylpyridine-2-carboxamide], the EC50 (commonly the midpoint of the concentration-response curve) in data set [1] is 500 to 5000 nM.
For the compound `Cc1cc(C(=O)NCOCCO)ncc1C(c1cc(F)ccc1F)S(=O)(=O)c1ccc(F)cc1` (stereo not drawn) [Example 112, 5-[(2,5-Difluorophenyl)[(4-fluorophenyl)sulfonyl]methyl]-N-[(2-hydroxyethoxy)methyl]-4-methylpyridine-2-carboxamide], the melting point lay within 175 to 177 °C.
In the case of `Cc1ccc(S(=O)(=O)C(c2cnc(C(=O)NCCO)cc2C)c2cc(F)ccc2F)cc1` (stereo not drawn) [Example 63, 5-[(2,5-Difluorophenyl)[(4-methylphenyl)sulfonyl]methyl]-N-(2-hydroxyethyl)-4-methylpyridine-2-carboxamide], in data set [1], the EC50 is no more than 5 nM.
On the same count and under the same terms, next, `Cc1cc(C(N)=O)ncc1C(c1cc(F)ccc1F)[S+]([O-])c1ccc(F)cc1` (stereo not drawn) [Example 24, 5-[(2,5-Difluorophenyl) [(4-fluorophenyl)sulfinyl]methyl]-4-methylpyridine-2-carboxamide]: 5 to 50 nM.
For `Cc1cc(C(N)=O)ncc1C(c1c(F)ccc(F)c1F)[S+]([O-])c1ccc(F)cc1` (stereo not drawn) [Example 38, 5-[[(4-Fluorophenyl)sulfinyl](2,3,6-trifluorophenyl)methyl]-4-methylpyridine-2-carboxamide], the EC50 in data set [1] was in the range of 5 to 50 nM.
On the same count and under the same terms, next, `Cc1cc(C(N)=O)ncc1C(c1cc(F)ccc1F)S(=O)(=O)c1ccc(C(F)(F)F)nc1` (stereo not drawn) [Example 32, 5-[(2,5-Difluorophenyl)[[6-(trifluoromethyl)pyridin-3-yl]sulfonyl]methyl]-4-methylpyridine-2-carboxamide]: 5 to 50 nM.
`Cc1cc(C(N)=O)ncc1C(c1c(F)ccc(F)c1F)S(=O)(=O)c1ccc2ccoc2c1` (stereo not drawn) [Example 126, 5-[(1-Benzofuran-6-ylsulfonyl)(2,3,6-trifluorophenyl)methyl]-4-methylpyridine-2-carboxamide] gave a melting point of 237 to 240 °C.
`Cc1cc(C(N)=O)ncc1C(c1c(F)ccc(F)c1F)S(=O)(=O)c1ccc(F)c(F)c1` (stereo not drawn) [Example 121, 5-[[(3,4-Difluorophenyl)sulfonyl](2,3,6-trifluorophenyl)methyl]-4-methylpyridine-2-carboxamide] returned a melting point of 200 to 201 °C.
Regarding `Cc1cc(C(N)=O)ncc1C(c1cc(F)ccc1F)S(=O)(=O)c1ccc(F)cc1` (stereo not drawn) [Example 15, 5-[(2,5-Difluorophenyl)[(4-fluorophenyl)sulfonyl]methyl]-4-methylpyridine-2-carboxamide], in data set [1], the EC50 is no more than 5 nM.
In the case of `Cc1cc(C(=O)NCCC(=O)O)ncc1C(c1cc(F)ccc1F)S(=O)(=O)c1ccc(F)cc1` (stereo not drawn) [Example 81, N-[[5-[(2,5-difluorophenyl)[(4-fluorophenyl)sulfonyl]methyl]-4-methylpyridin-2-yl]carbonyl]-β-alanine], the melting point was 223 to 226 °C.
With `Cc1cc(C(N)=O)ncc1C(c1c(F)ccc(F)c1F)S(=O)(=O)c1ccccc1` (stereo not drawn) [Example 105, 4-Methyl-5-[(phenylsulfonyl)(2,3,6-trifluorophenyl)methyl]pyridine-2-carboxamide], in data set [1], the EC50 is no more than 5 nM.
Compound `CC(=O)NC(=O)c1cc(C)c(C(c2cc(F)ccc2F)S(=O)(=O)c2ccc(F)cc2)cn1` (stereo not drawn) [Example 107, N-acetyl-5-[(2,5-difluorophenyl)[(4-fluorophenyl)sulfonyl]methyl]-4-methylpyridine-2-carboxamide] came in with a melting point of 182 to 183 °C.
Take `Cc1cc(C(=O)O)ncc1C(c1cc(F)ccc1F)S(=O)(=O)c1ccc(Cl)cc1` (stereo not drawn) [Example 3, 5-[[(4-Chlorophenyl)sulfonyl](2,5-difluorophenyl)methyl]-4-methylpyridine-2-carboxylic acid]: the melting point lay within 208 to 209 °C.
Take `Cc1cc(C(=O)NCCO)ncc1C(c1cc(F)ccc1F)S(=O)(=O)c1ccccc1` (stereo not drawn) [Example 59, 5-[(2,5-Difluorophenyl)(phenylsulfonyl)methyl]-N-(2-hydroxyethyl)-4-methylpyridine-2-carboxamide]: in data set [1], the EC50 was in the range of 5 to 50 nM.
On the same count and under the same terms, the result for `Cc1cc(C(=O)N(C)C)ncc1C(c1cc(F)ccc1F)[S+]([O-])c1ccc(C(F)(F)F)nc1` (stereo not drawn) [Example 28B, 5-[(2,5-difluorophenyl)[[6-(trifluoromethyl)pyridin-3-yl]sulfinyl]methyl]-N,N,4-trimethylpyridine-2-carboxamide] reads 500 to 5000 nM; that for `Cc1cc(C(=O)NCCO)ncc1C(c1cc(F)ccc1F)S(=O)(=O)c1ccc(C(F)(F)F)nc1` (stereo not drawn) [Example 30, 5-[(2,5-Difluorophenyl) [[6-(trifluoromethyl)pyridin-3-yl]sulfonyl]methyl]-N-(2-hydroxyethyl)-4-methylpyridine-2-carboxamide], no more than 5 nM.
Consider `Cc1cc(C(=O)N(C)C)ncc1C(c1c(F)ccc(F)c1F)S(=O)(=O)c1ccc(F)cc1` (stereo not drawn) [Example 36A, 5-[[(4-Fluorophenyl)sulfonyl](2,3,6-trifluorophenyl)methyl]-N,N,4-trimethylpyridine-2-carboxamide], for which the EC50 in data set [1] was in the range of 5 to 50 nM.
For the compound `CNC(=O)c1cc(C)c(C(c2cc(F)ccc2F)[S+]([O-])c2ccc(F)cc2)cn1` (stereo not drawn) [Example 21, 5-[(2,5-Difluorophenyl)[(4-fluorophenyl)sulfinyl]methyl]-N,4-dimethylpyridine-2-carboxamide], the EC50 in data set [1] is 5 to 50 nM.
The same measure, in the same setting: the result for `Cc1cc(C(=O)N(C)C)ncc1C(c1cc(F)ccc1F)S(=O)(=O)c1ccc(C(F)(F)F)nc1` (stereo not drawn) [Example 28A, 5-[(2,5-Difluorophenyl) [[6-(trifluoromethyl)pyridin-3-yl]sulfonyl]methyl]-N,N,4-trimethylpyridine-2-carboxamide] reads 500 to 5000 nM; that for `Cc1cc(C(N)=O)ncc1C(c1c(F)ccc(F)c1F)S(=O)(=O)c1ccc(F)cc1` (stereo not drawn) [Example 39, 5-[[(4-Fluorophenyl)sulfonyl](2,3,6-trifluorophenyl)methyl]-4-methylpyridine-2-carboxamide], no more than 5 nM.
Consider `CC(=O)NCCNC(=O)c1cc(C)c(C(c2cc(F)ccc2F)S(=O)(=O)c2ccc(F)cc2)cn1` (stereo not drawn) [Example 83, N-[2-(acetylamino)ethyl]-5-[(2,5-difluorophenyl)[(4-fluorophenyl)sulfonyl]methyl]-4-methylpyridine-2-carboxamide], for which the EC50 in data set [1] was no more than 5 nM.
Regarding `Cc1cc(S(=O)(=O)C(c2cnc(C(=O)NCCO)cc2C)c2cc(F)ccc2F)ccc1Cl` (stereo not drawn) [Example 67, 5-[[(4-Chloro-3-methylphenyl)sulfonyl](2,5-difluorophenyl)methyl]-N-(2-hydroxyethyl)-4-methylpyridine-2-carboxamide], the EC50 in data set [1] was no more than 5 nM.
As to `Cc1cc(C(=O)NCCO)ncc1C(c1cc(F)ccc1F)S(=O)(=O)c1ccc(C(F)(F)F)cn1` (stereo not drawn) [Example 55, 5-[(2,5-Difluorophenyl)[[5-(trifluoromethyl)pyridin-2-yl]sulfonyl]methyl]-N-(2-hydroxyethyl)-4-methylpyridine-2-carboxamide], the EC50 in data set [1] lay within 50 to 500 nM.
Take `Cc1cc(S(=O)(=O)C(c2cnc(C(=O)NCCO)cc2C)c2cc(F)ccc2F)ccc1F` (stereo not drawn) [Example 71, 5-[(2,5-Difluorophenyl)[(4-fluoro-3-methylphenyl)sulfonyl]methyl]-N-(2-hydroxyethyl)-4-methylpyridine-2-carboxamide]: the EC50 in data set [1] lay in the range of 5 to 50 nM.
